# Measured values published in patent publication US7238694B2, “Rifamycin imino derivatives effective against drug-resistant microbes” (Cumbre Pharmaceuticals, Inc., priority 2004, dated 2007).
# Experiments:
# Type in all cases: cell-based
# [1] = tested on: Staphylococcus aureus ATCC29213; assay: MIC, microbroth dilution (NCCLS); conditions: rifS strain, Cation-Adjusted Mueller-Hinton Broth, 37° C., read-out: MIC
# [2] = tested on: Staphylococcus aureus ATCC29213 rpoB^H418Y; assay: microbe, parasite or virus in culture; conditions: Staphylococcus aureus, ATCC29213; rifR strain; Cation-Adjusted Mueller-Hinton Broth, 37° C.; read-out: MIC
# [3] = tested on: Staphylococcus aureus MT1222 gyrA^A116E grlB^S80F; assay: microbe, parasite or virus in culture; conditions: cipR strain, Cation-Adjusted Mueller-Hinton Broth, 37° C., read-out: MIC
# [4] = tested on: Staphylococcus epidermidis ATCC12228; assay: MIC, microbroth dilution (NCCLS); conditions: rifS strain, Cation-Adjusted Mueller-Hinton Broth, 37° C., read-out: MIC
# [5] = tested on: Streptococcus pneumoniae ATCC6303; assay: MIC, microbroth dilution (NCCLS); conditions: rifS strain, THY Broth with 1 mg/mL catalase, 5% CO2, 37° C., read-out: MIC
# [6] = tested on: Streptococcus pyogenes ATCC19615; assay: MIC, microbroth dilution (NCCLS); conditions: rifS strain, THY Broth, 37° C., read-out: MIC
# [7] = tested on: Haemophilus influenzae ATCC10211; assay: MIC, microbroth dilution (NCCLS); conditions: rifS strain, BHI Broth with NAD and hematin, 37° C., read-out: MIC
compound,measurement,setting,value
"COc1c(N2CCC(N/N=C/c3c4c(O)c5c(O)c(C)c6c(c5c3O)C(=O)[C@@](C)(O/C=C/[C@H](OC)[C@@H](C)[C@@H](OC(C)=O)[C@H](C)[C@H](O)[C@H](C)[C@@H](O)[C@@H](C)/C=C/C=C(/C)C(=O)N4)O6)C2)c(F)cc2c(=O)c(C(=O)O)cn(C3CC3)c12 (mixture of isomers) [Example 21, (R/S)-3-[1-(3-Carboxy-1-cyclopropyl-6-fluoro-8-methoxy-4-oxo-1,4-dihydroquinolin-7-yl)-pyrrolidinyl-3-hydrazino-methylenyl]-rifamycin SV]",MIC,[1],0.008 to 1 µg/mL
same,MIC,[2],0.06 to 16 µg/mL
same,MIC,[3],0.008 to 0.125 µg/mL
same,MIC,[4],0.008 to 0.1 µg/mL
same,MIC,[5],0.008 to 0.06 µg/mL
same,MIC,[6],0.008 to 0.03 µg/mL
same,MIC,[7],0.125 to 4 µg/mL
"COc1c(N2CCN(C(=O)C3CCN(/N=C/c4c5c(O)c6c(O)c(C)c7c(c6c4O)C(=O)[C@@](C)(O/C=C/[C@H](OC)[C@@H](C)[C@@H](OC(C)=O)[C@H](C)[C@H](O)[C@H](C)[C@@H](O)[C@@H](C)/C=C/C=C(/C)C(=O)N5)O7)CC3)CC2)c(F)cc2c(=O)c(C(=O)O)cn(C3CC3)c12 [Example 32, 3-{4-[4-(3-Carboxy-1-cyclopropyl-6-fluoro-8-methoxy-4-oxo-1,4-dihydroquinolin-7-yl)-piperazine-1-yl-carbonyl]-piperidin-1-yl-aminomethylenyl}-rifamycin SV]",MIC,[1],0.008 to 1 µg/mL
same,MIC,[2],0.06 to 16 µg/mL
same,MIC,[3],0.008 to 0.125 µg/mL
same,MIC,[4],0.008 to 0.1 µg/mL
same,MIC,[5],0.008 to 0.06 µg/mL
same,MIC,[6],0.008 to 0.03 µg/mL
same,MIC,[7],0.125 to 4 µg/mL
"CO[C@H]1/C=C/O[C@@]2(C)Oc3c(C)c(O)c4c(O)c(c(/C=N/N5CCC(C(=O)NC6CCN(c7c(F)cc8c(=O)c(C(=O)O)cn(C9CC9)c8c7Cl)C6)CC5)c(O)c4c3C2=O)NC(=O)/C(C)=C\C=C\[C@H](C)[C@H](O)[C@@H](C)[C@@H](O)[C@@H](C)[C@H](OC(C)=O)[C@@H]1C (mixture of isomers) [Example 31, (R/S)-3-{4-[1-(3-Carboxy-8-chloro-1-cyclopropyl-6-fluoro-4-oxo-1,4-dihydroquinolin-7-yl)-pyrrolidin-3-ylcarbamoyl]-piperidin-1-yl-aminomethylenyl}-rifamycin SV]",MIC,[1],0.008 to 1 µg/mL
same,MIC,[2],0.06 to 16 µg/mL
same,MIC,[3],0.008 to 0.125 µg/mL
same,MIC,[4],0.008 to 0.1 µg/mL
same,MIC,[5],0.008 to 0.06 µg/mL
same,MIC,[6],0.008 to 0.03 µg/mL
same,MIC,[7],0.125 to 4 µg/mL
"COc1c(N2CCN(C3CCN(/N=C/c4c5c(O)c6c(O)c(C)c7c(c6c4O)C(=O)[C@@](C)(O/C=C/[C@H](OC)[C@@H](C)[C@@H](OC(C)=O)[C@H](C)[C@H](O)[C@H](C)[C@@H](O)[C@@H](C)/C=C/C=C(/C)C(=O)N5)O7)C3)CC2)c(F)cc2c(=O)c(C(=O)O)cn(C3CC3)c12 (mixture of isomers) [Example 28, (R/S)-3-{3-[1-(3-carboxy-1-cyclopropyl-6-fluoro-8-methoxy-4-oxo-1,4-dihydroquinolin-7-yl)-piperazin-4-yl]-pyrrolidinyl-1-hydrazino-methylenyl}-rifamycin SV]",MIC,[1],0.008 to 1 µg/mL
same,MIC,[2],0.06 to 16 µg/mL
same,MIC,[3],0.008 to 0.125 µg/mL
same,MIC,[4],0.008 to 0.1 µg/mL
same,MIC,[5],0.008 to 0.06 µg/mL
same,MIC,[6],0.008 to 0.03 µg/mL
same,MIC,[7],0.125 to 4 µg/mL
"COc1c(N2CCN(/N=C/C3=C4NC(=O)/C(C)=C\C=C\[C@H](C)[C@H](O)[C@@H](C)[C@@H](O)[C@@H](C)[C@H](OC(C)=O)[C@H](C)[C@@H](OC)/C=C/O[C@@]5(C)Oc6c(C)c(O)c(c(c6C5=O)C3=O)C4=O)C(C)C2)c(F)cc2c(=O)c(C(=O)O)cn(C3CC3)c12 (mixture of isomers) [Example 12, (R/S)-3-[4-(3-Carboxy-1-cyclopropyl-6-fluoro-8-methoxy-4-oxo-1,4-dihydroquinolin-7-yl)-2-methylpiperazin-1-yl-aminomethylenyl]rifamycin S]",MIC,[1],0.008 to 1 µg/mL
same,MIC,[2],0.06 to 16 µg/mL
same,MIC,[3],0.008 to 0.125 µg/mL
same,MIC,[4],0.008 to 0.1 µg/mL
same,MIC,[5],0.008 to 0.06 µg/mL
same,MIC,[6],0.008 to 0.03 µg/mL
same,MIC,[7],0.125 to 4 µg/mL
"COc1c(N2CCCC(N/N=C/c3c4c(O)c5c(O)c(C)c6c(c5c3O)C(=O)[C@@](C)(O/C=C/[C@H](OC)[C@@H](C)[C@@H](OC(C)=O)[C@H](C)[C@H](O)[C@H](C)[C@@H](O)[C@@H](C)/C=C/C=C(/C)C(=O)N4)O6)C2)c(F)cc2c(=O)c(C(=O)O)cn(C3CC3)c12 (mixture of isomers) [Example 24, (R/S)-3-[1-(3-Carboxy-1-cyclopropyl-6-fluoro-8-methoxy-4-oxo-1,4-dihydroquinolin-7-yl)-piperidin-3-hydrazino-methylenyl]-rifamycin SV]",MIC,[1],0.008 to 1 µg/mL
same,MIC,[2],0.06 to 16 µg/mL
same,MIC,[3],0.008 to 0.125 µg/mL
same,MIC,[4],0.008 to 0.1 µg/mL
same,MIC,[5],0.008 to 0.06 µg/mL
same,MIC,[6],0.008 to 0.03 µg/mL
same,MIC,[7],0.125 to 4 µg/mL
